Holding throughout (assay): Eurofins kinase selectivity profile against 380 other human recombinant kinases (Table S2)
What all share (format): biochemical

For test [1], the target named is T1, 380 human recombinant protein kinases (Homo sapiens, UniProt O00311).
T1 construct: purchased Eurofins (Celle Lévescault)
To be noted: Cdc7/cyclinB1(h), read-out: Inhibition rate. In outline:
(§1)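 Outsourced panel: 380 human recombinant kinases; inhibitor tested at various concentrations; purpose: MK2 selectivity check.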

Test [2] addresses T2, 380 human recombinant protein kinases (Homo sapiens, UniProt O14578).
T2 construct: purchased Eurofins (Celle Lévescault)
To be noted: CRIK(h), read-out: Inhibition rate. In outline: as §1

In test [3] the target is T3, 380 human recombinant protein kinases (Homo sapiens, UniProt P52333).
T3 construct: purchased Eurofins (Celle Lévescault)
T3 sequence (P52333 1-1124): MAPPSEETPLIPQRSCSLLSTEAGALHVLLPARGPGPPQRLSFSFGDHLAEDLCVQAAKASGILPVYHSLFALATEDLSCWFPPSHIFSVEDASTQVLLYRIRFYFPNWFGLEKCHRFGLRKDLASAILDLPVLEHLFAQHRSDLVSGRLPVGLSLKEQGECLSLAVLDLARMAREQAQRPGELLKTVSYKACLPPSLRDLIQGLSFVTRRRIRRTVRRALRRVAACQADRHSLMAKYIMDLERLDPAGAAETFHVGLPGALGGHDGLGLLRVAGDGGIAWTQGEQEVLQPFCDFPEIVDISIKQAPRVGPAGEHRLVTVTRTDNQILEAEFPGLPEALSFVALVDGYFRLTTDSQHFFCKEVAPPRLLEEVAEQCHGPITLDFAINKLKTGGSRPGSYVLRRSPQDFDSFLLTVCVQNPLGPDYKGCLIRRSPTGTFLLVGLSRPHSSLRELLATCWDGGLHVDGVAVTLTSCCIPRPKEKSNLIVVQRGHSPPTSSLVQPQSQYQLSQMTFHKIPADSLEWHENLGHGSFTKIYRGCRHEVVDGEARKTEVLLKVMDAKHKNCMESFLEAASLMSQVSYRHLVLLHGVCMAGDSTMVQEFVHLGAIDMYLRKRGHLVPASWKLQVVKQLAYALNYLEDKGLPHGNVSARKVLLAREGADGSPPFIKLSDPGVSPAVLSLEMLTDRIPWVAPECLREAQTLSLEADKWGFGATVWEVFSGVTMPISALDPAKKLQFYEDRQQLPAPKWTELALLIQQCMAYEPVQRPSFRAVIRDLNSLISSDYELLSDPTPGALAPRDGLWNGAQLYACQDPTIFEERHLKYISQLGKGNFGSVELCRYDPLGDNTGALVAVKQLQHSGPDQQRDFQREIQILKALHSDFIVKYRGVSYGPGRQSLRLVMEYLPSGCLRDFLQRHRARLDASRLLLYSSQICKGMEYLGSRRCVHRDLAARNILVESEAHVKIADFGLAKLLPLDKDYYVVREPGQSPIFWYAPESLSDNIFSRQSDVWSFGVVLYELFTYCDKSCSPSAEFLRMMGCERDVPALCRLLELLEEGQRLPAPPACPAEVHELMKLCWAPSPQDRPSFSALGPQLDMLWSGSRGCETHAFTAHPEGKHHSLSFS
To be noted: JAK3(h), read-out: Inhibition rate. In outline: as §1

For test [4], the target named is T4, 380 human recombinant protein kinases (Homo sapiens, UniProt Q04759).
T4 construct: purchased Eurofins (Celle Lévescault)
T4 sequence (Q04759 whole entry): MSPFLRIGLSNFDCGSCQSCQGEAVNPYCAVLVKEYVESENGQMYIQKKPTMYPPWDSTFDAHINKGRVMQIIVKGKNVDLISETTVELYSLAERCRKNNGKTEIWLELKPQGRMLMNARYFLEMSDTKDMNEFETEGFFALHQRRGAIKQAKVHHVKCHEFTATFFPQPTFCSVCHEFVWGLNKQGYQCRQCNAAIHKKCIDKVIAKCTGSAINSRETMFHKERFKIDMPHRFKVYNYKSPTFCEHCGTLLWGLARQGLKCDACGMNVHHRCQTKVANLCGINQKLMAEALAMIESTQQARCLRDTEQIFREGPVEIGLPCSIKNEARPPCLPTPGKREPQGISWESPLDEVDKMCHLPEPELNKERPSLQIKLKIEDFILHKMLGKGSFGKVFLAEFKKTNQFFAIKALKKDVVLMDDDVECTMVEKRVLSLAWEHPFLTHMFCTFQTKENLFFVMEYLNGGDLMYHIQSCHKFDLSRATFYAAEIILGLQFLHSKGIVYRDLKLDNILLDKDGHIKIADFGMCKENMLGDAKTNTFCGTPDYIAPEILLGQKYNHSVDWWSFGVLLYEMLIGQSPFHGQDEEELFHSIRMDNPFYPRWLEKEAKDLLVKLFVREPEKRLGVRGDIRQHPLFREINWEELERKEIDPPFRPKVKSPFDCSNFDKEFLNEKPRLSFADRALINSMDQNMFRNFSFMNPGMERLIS
The following applies: PKCθ(h), read-out: Inhibition rate. In short, it runs like this:
as §1

The target of test [5] is T5, 380 human recombinant protein kinases (Homo sapiens, UniProt Q04771).
T5 construct: purchased Eurofins (Celle Lévescault)
T5 sequence (Q04771 21-509): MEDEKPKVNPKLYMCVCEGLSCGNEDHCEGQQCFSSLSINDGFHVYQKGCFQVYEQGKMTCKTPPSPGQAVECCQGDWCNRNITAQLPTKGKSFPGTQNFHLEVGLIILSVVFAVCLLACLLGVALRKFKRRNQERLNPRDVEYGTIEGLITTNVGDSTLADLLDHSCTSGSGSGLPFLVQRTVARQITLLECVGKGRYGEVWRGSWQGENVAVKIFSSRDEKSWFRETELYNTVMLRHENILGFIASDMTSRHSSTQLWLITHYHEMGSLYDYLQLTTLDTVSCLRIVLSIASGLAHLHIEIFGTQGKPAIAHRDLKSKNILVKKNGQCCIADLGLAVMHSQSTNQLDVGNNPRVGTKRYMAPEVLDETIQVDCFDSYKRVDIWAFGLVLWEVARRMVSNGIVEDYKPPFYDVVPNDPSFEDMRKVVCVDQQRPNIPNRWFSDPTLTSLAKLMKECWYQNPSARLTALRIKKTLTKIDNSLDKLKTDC
To be noted: ALK2(h), read-out: Inhibition rate. In outline: as §1

In test [6] the target is T6, 380 human recombinant protein kinases (Homo sapiens, UniProt Q8N568).
T6 construct: purchased Eurofins (Celle Lévescault)
T6 sequence (Q8N568 whole entry): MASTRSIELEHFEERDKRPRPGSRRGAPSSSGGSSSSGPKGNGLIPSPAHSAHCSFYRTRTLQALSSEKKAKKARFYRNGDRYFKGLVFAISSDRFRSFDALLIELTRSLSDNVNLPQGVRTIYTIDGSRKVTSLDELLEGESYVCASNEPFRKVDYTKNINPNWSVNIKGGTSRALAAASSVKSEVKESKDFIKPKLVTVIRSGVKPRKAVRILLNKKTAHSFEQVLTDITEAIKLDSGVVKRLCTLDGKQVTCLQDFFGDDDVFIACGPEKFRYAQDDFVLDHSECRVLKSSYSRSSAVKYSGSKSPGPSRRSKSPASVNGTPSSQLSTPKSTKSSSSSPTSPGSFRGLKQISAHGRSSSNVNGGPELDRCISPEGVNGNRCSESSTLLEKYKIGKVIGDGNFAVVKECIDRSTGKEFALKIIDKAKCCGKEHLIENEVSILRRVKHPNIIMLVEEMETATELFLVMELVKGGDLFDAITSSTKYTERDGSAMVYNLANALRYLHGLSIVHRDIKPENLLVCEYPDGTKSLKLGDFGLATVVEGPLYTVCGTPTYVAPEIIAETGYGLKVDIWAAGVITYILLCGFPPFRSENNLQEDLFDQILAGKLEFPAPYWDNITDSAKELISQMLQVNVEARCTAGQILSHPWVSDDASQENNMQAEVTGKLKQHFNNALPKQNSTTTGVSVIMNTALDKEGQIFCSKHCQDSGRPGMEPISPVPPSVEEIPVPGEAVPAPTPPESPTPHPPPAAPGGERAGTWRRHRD
To be noted: DCAMKL2(h), read-out: Inhibition rate. In short, it runs like this: as §1

The target in test [7] is T7, 380 human recombinant protein kinases (Homo sapiens, UniProt Q9BXA7).
T7 construct: purchased Eurofins (Celle Lévescault)
T7 sequence (Q9BXA7 1-367): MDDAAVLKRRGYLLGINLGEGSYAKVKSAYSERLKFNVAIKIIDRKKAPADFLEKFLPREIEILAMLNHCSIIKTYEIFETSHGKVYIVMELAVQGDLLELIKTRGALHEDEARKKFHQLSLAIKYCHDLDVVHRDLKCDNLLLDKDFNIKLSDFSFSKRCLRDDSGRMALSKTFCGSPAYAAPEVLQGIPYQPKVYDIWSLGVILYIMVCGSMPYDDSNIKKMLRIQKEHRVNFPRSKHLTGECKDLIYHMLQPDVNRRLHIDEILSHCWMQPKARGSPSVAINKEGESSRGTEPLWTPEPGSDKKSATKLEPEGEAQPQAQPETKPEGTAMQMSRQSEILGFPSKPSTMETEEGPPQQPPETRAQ
The following applies: TSSK1(h), read-out: Inhibition rate (%). In outline:
as §1

T2 sequence (O14578 whole entry): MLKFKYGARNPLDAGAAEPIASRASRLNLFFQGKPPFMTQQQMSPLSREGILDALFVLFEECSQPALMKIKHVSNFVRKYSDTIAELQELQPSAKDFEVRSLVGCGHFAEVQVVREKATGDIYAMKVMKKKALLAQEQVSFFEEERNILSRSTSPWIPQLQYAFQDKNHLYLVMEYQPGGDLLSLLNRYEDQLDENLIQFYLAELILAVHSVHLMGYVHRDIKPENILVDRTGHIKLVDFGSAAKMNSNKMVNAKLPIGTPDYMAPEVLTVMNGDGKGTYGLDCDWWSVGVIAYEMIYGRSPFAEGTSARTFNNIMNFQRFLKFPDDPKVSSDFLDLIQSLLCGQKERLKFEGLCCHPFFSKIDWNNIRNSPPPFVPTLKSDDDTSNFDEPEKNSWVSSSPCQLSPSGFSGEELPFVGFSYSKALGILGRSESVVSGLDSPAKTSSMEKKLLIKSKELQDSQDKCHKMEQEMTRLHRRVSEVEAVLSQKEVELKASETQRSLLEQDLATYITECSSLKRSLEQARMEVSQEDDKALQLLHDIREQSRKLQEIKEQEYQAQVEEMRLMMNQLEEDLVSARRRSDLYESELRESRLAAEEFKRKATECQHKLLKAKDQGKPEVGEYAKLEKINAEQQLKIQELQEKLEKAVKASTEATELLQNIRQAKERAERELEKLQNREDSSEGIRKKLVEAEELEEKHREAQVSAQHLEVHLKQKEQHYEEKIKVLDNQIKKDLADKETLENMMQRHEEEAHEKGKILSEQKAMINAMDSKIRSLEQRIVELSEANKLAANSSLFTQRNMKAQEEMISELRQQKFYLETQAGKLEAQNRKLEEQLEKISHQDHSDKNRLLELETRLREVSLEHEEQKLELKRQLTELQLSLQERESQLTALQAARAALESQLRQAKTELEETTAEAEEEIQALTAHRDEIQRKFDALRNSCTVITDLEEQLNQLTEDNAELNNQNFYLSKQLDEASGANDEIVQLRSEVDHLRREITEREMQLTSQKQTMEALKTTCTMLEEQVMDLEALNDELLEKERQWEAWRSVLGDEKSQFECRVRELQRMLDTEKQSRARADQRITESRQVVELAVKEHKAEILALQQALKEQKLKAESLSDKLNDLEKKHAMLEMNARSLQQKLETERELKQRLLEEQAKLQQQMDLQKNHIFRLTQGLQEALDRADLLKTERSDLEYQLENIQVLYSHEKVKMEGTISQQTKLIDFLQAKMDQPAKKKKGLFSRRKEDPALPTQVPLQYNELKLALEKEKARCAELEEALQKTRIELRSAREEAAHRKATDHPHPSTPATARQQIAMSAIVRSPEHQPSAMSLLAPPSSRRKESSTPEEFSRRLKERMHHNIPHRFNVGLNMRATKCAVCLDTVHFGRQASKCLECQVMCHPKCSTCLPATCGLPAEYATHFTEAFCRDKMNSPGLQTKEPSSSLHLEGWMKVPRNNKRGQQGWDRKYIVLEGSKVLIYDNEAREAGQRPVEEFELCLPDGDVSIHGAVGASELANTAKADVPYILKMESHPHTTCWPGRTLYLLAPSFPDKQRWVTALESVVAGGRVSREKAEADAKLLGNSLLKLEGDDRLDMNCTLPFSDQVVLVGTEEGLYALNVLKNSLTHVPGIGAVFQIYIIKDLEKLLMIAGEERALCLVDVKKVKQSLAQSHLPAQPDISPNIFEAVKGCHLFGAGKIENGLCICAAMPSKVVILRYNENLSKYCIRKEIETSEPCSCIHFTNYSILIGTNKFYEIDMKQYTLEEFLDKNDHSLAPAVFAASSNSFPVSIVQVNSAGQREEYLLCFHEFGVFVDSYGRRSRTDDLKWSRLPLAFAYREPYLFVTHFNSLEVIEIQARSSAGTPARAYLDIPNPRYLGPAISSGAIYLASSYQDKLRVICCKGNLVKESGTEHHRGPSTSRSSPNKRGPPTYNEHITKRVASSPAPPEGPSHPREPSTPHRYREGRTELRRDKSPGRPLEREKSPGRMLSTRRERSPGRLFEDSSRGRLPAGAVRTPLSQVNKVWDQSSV
T1 sequence (O00311 whole entry): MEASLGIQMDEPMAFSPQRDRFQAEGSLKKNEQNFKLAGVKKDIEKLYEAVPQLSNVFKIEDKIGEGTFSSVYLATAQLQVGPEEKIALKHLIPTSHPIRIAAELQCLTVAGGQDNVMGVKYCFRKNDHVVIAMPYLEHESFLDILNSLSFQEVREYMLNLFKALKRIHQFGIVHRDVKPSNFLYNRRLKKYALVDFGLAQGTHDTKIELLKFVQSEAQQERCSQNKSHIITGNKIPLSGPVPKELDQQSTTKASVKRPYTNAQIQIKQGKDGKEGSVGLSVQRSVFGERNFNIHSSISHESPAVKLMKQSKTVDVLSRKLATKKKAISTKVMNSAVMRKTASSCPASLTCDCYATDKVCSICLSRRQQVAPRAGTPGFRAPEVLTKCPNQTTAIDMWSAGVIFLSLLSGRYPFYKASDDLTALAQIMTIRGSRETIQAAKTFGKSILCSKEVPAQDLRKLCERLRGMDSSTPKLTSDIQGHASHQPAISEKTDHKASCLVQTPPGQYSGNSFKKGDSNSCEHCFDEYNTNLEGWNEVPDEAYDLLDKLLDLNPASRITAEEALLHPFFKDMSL

As for `C=CC(=O)Nc1cc(-c2cc(-c3cc4c([nH]3)CCNC4=O)ccn2)ccc1OC(F)(F)F` [compound 11], the inhibition at 0.01 µM is 8% in test [1] (10 nM); -8% in test [2] (10 nM); 8% in test [3] (10 nM); 6% in test [4] (10 nM); -4% in test [5] (10 nM); 4% in test [6] (10 nM). The inhibition at 0.01 µM in test [7] (10 nM) was found to be 1%. Besides, the inhibition at 0.1 µM in test [1] (100 nM) was 16%; in test [2] (100 nM), 6%; in test [3] (100 nM) it was 5%; in test [4] (100 nM), 0%; in test [5] (100 nM), -6%; in test [6] (100 nM), 4%. For the same compound, the inhibition at 0.1 µM in test [7] (100 nM) came to 2%. The inhibition at 1 µM in test [1] (1000 nM) came to 22%; in test [2] (1000 nM), 29%; in test [3] (1000 nM), 12%; in test [4] (1000 nM), 4%; in test [5] (1000 nM), 0%; in test [6] (1000 nM), 4%. Besides, the inhibition at 1 µM in test [7] (1000 nM) stood at 7%.

For orientation: inhibition means the change of the read-out against control, counted positive when it falls.

The values are drawn from paper PMC11233931, “Remodeling tumor‐associated macrophage for anti‐cancer effects by rational design of irreversible inhibition of mitogen‐activated protein kinase‐activated protein kinase 2” (MedComm, 2024).
